Reference: patent publication US20140378454A1, “NOVEL METHODS” (XSPRAY MICROPARTICLES AB, priority 2012, published 2014)
Where a name gives a salt, the structure may show the parent alone.

Experiments:
Assay type in all cases: physicochemical
[1] = Dissolution measurement assay (apparent solubility) in FaSSIF, pH 6.5; parameters: AUC/90 min / AUC/80 min: concentration or dose not given beside the values; conditions: for AUC/80 min: during 80 min dissolution
[2] = Dissolution measurement assay (apparent solubility) in FeSSIF, pH 5; conditions: for Conc (mg/L) 5 min: 5 minutes dissolution; for Conc (mg/L) 90 min: 90 minutes dissolution
Method: The method consists of adding the wished amount of powder of hybrid nanoparticles into a glass vial and then pouring in it the appropriate medium (typically FaSSIF, FeSSIF or SGF). The medium was prepared in accordance with the manufacturer's instructions. The amount of powder added depends on the wished “total PKI concentration”. […] For other experiments, the drug load was first estimated by HPLC and the amount of powder to obtain the drug concentration was calculated.
Typically, the powder was added in a 8 mL glass bottle and 7 mL of solution was added (typically FaSSIF, FeSSIF or SGF). The glass bottle was put on a shaker (approximately 1 rotation per minute) for dissolution. Samples of 500 μl where taken after different times, and subsequently centrifuged at approximately 15000 g for 3 minutes. The resulting supernatant was then analyzed by HPLC (C18 column Eclipse, 4.6 mm×15 cm, 1 mL/min, detection at 254-400 nM. Generally samples were taken after 5, 30 and 90 min and eventually 150 min.
A number of experiments were carried out, wherein nilotinib base or nilotinib HCl represented the protein kinase inhibitor. The experiments were carried out by measuring concentration of solubilized PKI (mg/L) after 5, 30 and 90 minutes dissolution in a solution at about pH 6.5, namely FaSSIF (Fasted State Simulated Intestinal Fluid). […] Samples of the solution were taken at various time intervals and the amount of protein kinase inhibitor was measured by the dissolution measurement assay described above.

[3] = Dissolution rate measurement in sink conditions, flow through cell system, FaSSIF, 37° C.; conditions: sink condition in FaSSIF, initial slope of accumulated % solubilized vs time, 0 to 10 minutes
Method: The temperature of the apparatus was set to 37° C. The amount of powder added into the cell depends on drug load of the powder: The exact amount of powder was calculated from results obtained from drug load analysis of the powders.
Typically, 3.5 to 7 mg PKI was added into the flow through cell and a flow rate between 8 and 16 ml medium/min (preferably about 8 ml medium/min) was pumped through the powder. One ml samples of the medium passing through the cell were collected at predetermined times. […] Samples were taken after 0, 0.5, 1, 1.5, 2, 3, 4, 5, 6, 7, 8, 9, 10, 15, 20, 25, 30, 35 and 40 min from the moment the medium comes out from the flow through cell. The accumulated % solubilized of the amount of active substance added into the flow through cell was calculated and plotted against time (min). The initial slope (“initial dissolution rate”) of the graph was estimated, as measured during 0 to 10 minutes, and taken as the dissolution rate of the material in sink condition at 37° C. in the given dissolution medium.

[4] = concentration of erlotinib HCl, FeSSIF solution (pH 5)
[5] = concentration of nilotinib HCl, FaSSIF solution (pH 6.5), 5 minutes dissolution, HCl
[6] = concentration of nilotinib HCl, FaSSIF solution (pH 6.5), 30 minutes dissolution, HCl
[7] = concentration of nilotinib HCl, FaSSIF solution (pH 6.5), 90 minutes dissolution, HCl
[8] = nilotinib HCl, FaSSIF solution (pH 6.5), 30 minutes dissolution, HCl
[9] = nilotinib HCl, FaSSIF solution (pH 6.5), Area Under the Curve during 90 minutes dissolution, HCl
[10] = concentration of nilotinib HCl, FeSSIF solution (pH 5)

**Q.** With `C[C@@H](Oc1cc(-c2cnn(C3CCNCC3)c2)cnc1N)c1c(Cl)ccc(F)c1Cl` [Exp 150, crizotinib] as the molecule, how does the “Conc (mg/L) 3 min” value ([1]; 3 min, pH 6.5) read?
**A.** Its value is 89.3 mg/L.

**Q.** And the “% solubilized 40 min.” value ([1]; 40 min, pH 6.5)?
**A.** The value was 22.7%.

**Q.** What about the “Conc (mg/L) 40 min” value ([1]; 40 min, pH 6.5) of the same molecule?
**A.** The value was 226.5 mg/L.

**Q.** And the “Conc (mg/L) 80 min” value ([1]; 80 min, pH 6.5)?
**A.** The value was 295.6 mg/L.

**Q.** Which “Conc (mg/L) 5 min” value [2, 4] does the source give for `C#Cc1cccc(Nc2ncnc3cc(OCCOC)c(OCCOC)cc23)c1` [Exp 69, Erlotinib HCl] here?
**A.** Its value is 156.8 mg/L.

**Q.** And the “Conc (mg/L) 30 min” value ([2]; concentration of erlotinib HCl, FeSSIF solution (pH 5), 30 minutes dissolution)?
**A.** The value was 189.9 mg/L.

**Q.** What about the “Conc (mg/L) 90 min” value [2, 4] of the same molecule?
**A.** Its value is 196 mg/L.

**Q.** And the “% solubilized 30 min.” value ([2]; erlotinib HCl, FeSSIF pH 5, 30 min dissolution)?
**A.** Its value is 19.0%.

**Q.** And the “AUC/90 min Mg/min/L” value ([2]; erlotinib HCl, FeSSIF pH 5, during 90 min dissolution)?
**A.** Its value is 16303 Mg/min/L.

**Q.** Which results are given for `Cc1cn(-c2cc(NC(=O)c3ccc(C)c(Nc4nccc(-c5cccnc5)n4)c3)cc(C(F)(F)F)c2)cn1` [Exp 1, Nilotinib HCl]?
**A.** Conc (mg/L) 5 min [1, 5]: 0.1 mg/L; Conc (mg/L) 30 min [1, 6]: 0.2 mg/L; Conc (mg/L) 90 min [1, 7]: 0.1 mg/L; % solubilized 30 min. [1, 8]: 0.20%; AUC/90 min Mg/min/L [1, 9]: 13.0 Mg/min/L

**Q.** For `Cc1cn(-c2cc(NC(=O)c3ccc(C)c(Nc4nccc(-c5cccnc5)n4)c3)cc(C(F)(F)F)c2)cn1` [Exp 2, Nilotinib HCl], which “Conc (mg/L) 5 min” value [1, 5] is on record?
**A.** Its value is 0.2 mg/L.

**Q.** What about the “Conc (mg/L) 30 min” value [1, 6] of the same molecule?
**A.** Its value is 0.2 mg/L.

**Q.** And the “Conc (mg/L) 90 min” value [1, 7]?
**A.** The value was 0.2 mg/L.

**Q.** And the “% solubilized 30 min.” value [1, 8]?
**A.** The value was 0.04%.

**Q.** What about the “AUC/90 min Mg/min/L” value [1, 9] of the same molecule?
**A.** Its value is 23.5 Mg/min/L.

**Q.** Which results are given for `Cc1cn(-c2cc(NC(=O)c3ccc(C)c(Nc4nccc(-c5cccnc5)n4)c3)cc(C(F)(F)F)c2)cn1` [Exp 4, Nilotinib Base]?
**A.** Conc (mg/L) 5 min ([1]; concentration of nilotinib HCl, FaSSIF solution (pH 6.5), 5 minutes dissolution): 0.6 mg/L; Conc (mg/L) 30 min ([1]; concentration of nilotinib HCl, FaSSIF solution (pH 6.5), 30 minutes dissolution): 0.5 mg/L; Conc (mg/L) 90 min ([1]; concentration of nilotinib HCl, FaSSIF solution (pH 6.5), 90 minutes dissolution): 0.2 mg/L; % solubilized 30 min. ([1]; nilotinib HCl, FaSSIF solution (pH 6.5), 30 minutes dissolution): 0.50%; AUC/90 min Mg/min/L ([1]; nilotinib HCl, FaSSIF solution (pH 6.5), Area Under the Curve during 90 minutes dissolution): 36.5 Mg/min/L

**Q.** For `C#Cc1cccc(Nc2ncnc3cc(OCCOC)c(OCCOC)cc23)c1` [Exp 510, erlotinib HCl], which “Initial Dissolution Rate” value [3] is on record?
**A.** The value was 0.303.

**Q.** Which “Conc (mg/L) 3 min” value ([1]; 3 min, pH 6.5) does the source give for `Cc1nc(Nc2ncc(C(=O)Nc3c(C)cccc3Cl)s2)cc(N2CCN(CCO)CC2)n1` [Exp 138, dasatinib] here?
**A.** Its value is 34.5 mg/L.

**Q.** What about the “Conc (mg/L) 40 min” value ([1]; 40 min, pH 6.5) of the same molecule?
**A.** The value was 59.7 mg/L.

**Q.** What about the “Conc (mg/L) 80 min” value ([1]; 80 min, pH 6.5) of the same molecule?
**A.** The value was 63.5 mg/L.

**Q.** What about the “% solubilized 40 min.” value ([1]; dasatinib, 40 min dissolution, FaSSIF pH 6.5) of the same molecule?
**A.** The value was 6.0%.

**Q.** What about the AUC/80 min ([1]; dasatinib, FaSSIF pH 6.5) of the same molecule?
**A.** Its AUC/80 min is 2396 Mg/min/L.

**Q.** Which “Initial Dissolution Rate” value [3] does the source give for `CS(=O)(=O)CCNCc1ccc(-c2ccc3ncnc(Nc4ccc(OCc5cccc(F)c5)c(Cl)c4)c3c2)o1` [Exp 530, lapatinib ditosylate] here?
**A.** Its value is 0.103.

**Q.** Which “Conc (mg/L) 5 min” value [2, 10] does the source give for `Cc1cn(-c2cc(NC(=O)c3ccc(C)c(Nc4nccc(-c5cccnc5)n4)c3)cc(C(F)(F)F)c2)cn1` [Exp 41, Nilotinib HCl] here?
**A.** Its value is 0.6 mg/L.

**Q.** What about the “Conc (mg/L) 30 min” value ([2]; concentration of nilotinib HCl, FeSSIF solution (pH 5), 30 minutes dissolution) of the same molecule?
**A.** Its value is 0.9 mg/L.

**Q.** What about the “Conc (mg/L) 90 min” value [2, 10] of the same molecule?
**A.** The value was 0.9 mg/L.

**Q.** And the “% solubilized 30 min.” value ([2]; nilotinib HCl, FeSSIF solution (pH 5), 30 minutes dissolution)?
**A.** Its value is 0.18%.

**Q.** What about the “AUC/90 min Mg/min/L” value ([2]; nilotinib HCl, FeSSIF solution (pH 5), Area Under the Curve during 90 minutes dissolution) of the same molecule?
**A.** Its value is 74.3 Mg/min/L.

**Q.** Which “Conc (mg/L) 3 min” value ([1]; concentration of gefitinib after 3 min dissolution, FaSSIF pH 6.5) does the source give for `COc1cc2ncnc(Nc3ccc(F)c(Cl)c3)c2cc1OCCCN1CCOCC1` [Exp 131, gefitinib] here?
**A.** The value was 121.8 mg/L.

**Q.** What about the “Conc (mg/L) 40 min” value ([1]; concentration of gefitinib after 40 min dissolution, FaSSIF pH 6.5) of the same molecule?
**A.** Its value is 153.1 mg/L.

**Q.** And the “Conc (mg/L) 80 min” value ([1]; concentration of gefitinib after 80 min dissolution, FaSSIF pH 6.5)?
**A.** Its value is 148.1 mg/L.

**Q.** And the “% solubilized 40 min.” value ([1]; gefitinib, 40 min dissolution, FaSSIF pH 6.5)?
**A.** The value was 15.3%.

**Q.** And the AUC/80 min ([1]; gefitinib, FaSSIF pH 6.5)?
**A.** Its AUC/80 min is 5967 Mg/min/L.

**Q.** With `C#Cc1cccc(Nc2ncnc3cc(OCCOC)c(OCCOC)cc23)c1` [Exp 58, erlotinib HCl] as the molecule, how does the “Conc (mg/L) 5 min” value ([1]; 5 min, pH 6.5) read?
**A.** The value was 28.9 mg/L.

**Q.** What about the “Conc (mg/L) 30 min” value ([1]; 30 min, pH 6.5) of the same molecule?
**A.** The value was 6.25 mg/L.

**Q.** And the “Conc (mg/L) 90 min” value ([1]; 90 min, pH 6.5)?
**A.** Its value is 4.6 mg/L.

**Q.** And the “% solubilized 30 min.” value ([1]; erlotinib HCl, FaSSIF pH 6.5, 30 min dissolution)?
**A.** The value was 0.6%.

**Q.** What about the “AUC/90 min Mg/min/L” value ([1]; erlotinib HCl, FaSSIF pH 6.5, during 90 min dissolution) of the same molecule?
**A.** The value was 837 Mg/min/L.
